{
  "source": "patent US20210254101A1",
  "about": "“METHODS FOR TREATING SPINAL CORD INJURY” (THE CHILDREN'S MEDICAL CENTER CORPORATION, priority 2018, published 2021)",
  "key": {"[1]": {"system": "mice with staggered lesions", "test": "Cortical stimulation with EMG responses recorded in the TA muscle", "type": "in vivo, mouse", "settings": "injured mice, compared to controls; FIG. 5D-5F", "protocol": "To test directly if the treated spinal cord could more efficiently relay descending inputs to the lumbar spinal cord, cortical stimulation was performed and recorded EMG responses in the TA muscle (FIG. 5D). […] Thus, KCC2 treatment facilitates the transmission of descending inputs from the brain to the lumbar spinal cord.\nFor epidural stimulation and EMG recording, a customized head plate was secured over the skull, and a monopolar stimulation electrode (SSM33A05, World Precision Instruments, Inc.) was positioned epidurally over the representative hindlimb area of left motor cortex. A train of electrical stimuli (0.2 ms biphasic pulse, 100 ms pulse train, 20 Hz, 0.5-1.5 mA) was generated by pulse generator and isolator (Master 9 and Iso-Flex, A.M.P.I.), and delivered during quadrupedal standing in fully awake condition. Testing was performed without and with electrochemical stimulations. Peak-to-peak amplitude and latency of evoked responses were computed from EMG recordings of the right TA muscle."}, "[2]": {"system": "mice with staggered lesions", "test": "Hindlimb kinematic analysis (MotoRater) and EMG recording of TA and GS muscles during stepping", "type": "in vivo, mouse", "description": "This extent of recovery is functionally significant, as stepping ability has been implicated as the limiting step for functional recovery in severe injury models (Schucht et al., 2002).\nEMG Recording and cortical stimulation. The procedure for EMG recording in free moving animals was similar to that described previously (Pearson et al., 2005). In brief, at 9 weeks after surgery, 5 mice from each group (Control, CLP290 and AAV-KCC2 treated mice) underwent implantation of customized bipolar electrodes into selected hindlimb muscles to record EMG activity. Electrodes (793200, A-M Systems) were led by 30 gauge needles and inserted into the mid-belly of the medial gastrocnemius (GS) and tibialis anterior (TA) muscles of the right hindlimb. A common ground wire was inserted subcutaneously in the neck-shoulder area. Wires were routed subcutaneously through the back to a small percutaneous connector securely cemented to the skull of the mouse. EMG signals were acquired using a differential AC amplifier (1700, A-M Systems, WA) with 10-1000 Hz filtration, sampled at 4 kHz using a digitizer (PowerLab 16/35, ADInstruments), and analyzed by LabChart 8 (ADInstruments).\n(§1) Behavioral Experiments. Motor function was evaluated with a locomotor open field rating scale on the Basso Mouse Scale (BMS). For transient pharmacological treatments, ten to fifteen minutes (van den Brand et al., 2012) prior to behavioral tests (grounding walking, all of which were performed individually), mice received systematic administration (i.p.) of the neural modulators listed above. It is important to note that with a single intraperitoneal injection, plasma CNO levels peak at 15 min and become very low by 2 h after injection (Guettier et al., 2009). For chronic pharmacological treatments, 24 hours prior to behavioral tests, mice received systematic administration of the compounds listed above. All behavioral tests were completed within 1-3 hours. For detailed hindlimb kinematic analysis, mice from different groups were placed in the MotoRater (TSE Systems, (Zorner et al., 2010)), and all kinematic analysis was performed based on data collected by the MotoRater."}, "[3]": {"system": "mice with a complete T8 spinal cord transection", "test": "BMS open field locomotion after complete T8 spinal cord transection", "type": "in vivo, mouse", "settings": "complete T8 transection; same treatment as in staggered lesion; FIG. 7E", "description": "CLP290's effects could result from reactivating the spared dormant descending connections in the spinal cord after SCI. However, it could also act directly on the lumbar spinal cord, independently of descending inputs. […] Therefore, different from this transient effector that acts directly on the lumbar spinal cord, the effects of CLP290 on functional improvement are dependent on spared connections.\nThe procedure of T8 full transection was similar to that described elsewhere (Courtine et al., 2009). Briefly, a midline incision was made over the thoracic vertebrae, followed by a T8 laminectomy. The complete T8 transection was then performed carefully using both a scalpel and micro-scissors. The muscle layers were then sutured and the skin was secured with wound clips.\nas §1"}, "[4]": {"system": "mice with staggered lesions", "test": "Basso Mouse Scale (BMS) open field locomotion after staggered T7/T10 lateral hemisections", "type": "in vivo", "protocol": "A staggered lesion paradigm was optimized in which two lateral hemisections were performed at the thoracic (T) 7 and T10 levels simultaneously (FIGS. 1A and 1B), similar to the model previously described (Courtine 2008; van den Brand, 2012). The T10 lesion is a lateral hemisection that ends at the spinal cord midline, while the T7 lesion, contralateral to the T10 lesion, extends slightly beyond the midline (FIG. 1A). With this double hemisection procedure, all descending axons passing T10 are severed, leaving only those crossing the midline between T7 and T10 intact (FIG. 1C). Indeed, by immunohistochemistry with anti-5-HT antibodies, which label serotonergic axons, descending serotonergic axons could be detected in the spinal cord segments between the lesions, but not in the lumbar spinal cord (FIG. 1C). Thus, a relay zone remains between and around the lesions (T7 and T10) where descending axons terminate, and where some propriospinal neurons maintain their connections with lumbar spinal neurons (see herein below).\nThis double hemisection SCI model was used to seek small molecule compounds that could reactivate the spared, but dormant, spinal connections by monitoring hindlimb motor performance during over-ground locomotion. To this end, daily compound treatment was started 1 week after injury and then monitored the BMS scores approximately 24 hours after the previous day's compound treatment on a weekly basis (FIG. 1D). Behavioral outcomes observed at these time points likely reflect sustained effects of the treatment, which are more clinically relevant.\nSurgical Procedures. The procedure of T7 and T10 double lateral hemisection was similar to that described elsewhere (Courtine et al., 2008; van den Brand et al., 2012). Briefly, a midline incision was made over the thoracic vertebrae, followed by a T7-10 laminectomy. For the T7 right side over-hemisection, a scalpel and micro-scissors were carefully used to interrupt the bilateral dorsal column at T7, and ensured no sparing of ventral pathways on the contralateral side (FIG. 1A). For the T10 left hemisection, a scalpel and micro-scissors were carefully used to interrupt only the left side of the spinal cord until the midline. The muscle layers were then sutured, and the skin was secured with wound clips. All animals received post hoc histological analysis, and those with spared 5HT axons at the lumbar spinal cord (L2-5) were excluded for behavioral analysis (FIG. 7).\nas §1"}},
  "data": [
    {"smiles": "O=C1N=C(N2CCCCN2)S/C1=C\\c1ccc(F)cc1OC(=O)N1CCCC1", "note": "[CLP290, [5-Fluoro-2-[(Z)-(2-hexahydropyridazin-1-yl-4-oxo-thiazol-5-ylidene)methyl]phenyl] pyrrolidine-1-carboxylate]", "values": [
      {"measurement": "amplitude of evoked EMG signals in TA muscle", "setting": "[1]", "result": "significantly increased"},
      {"measurement": "total hindlimb stride length", "setting": "[2]; 9 weeks post staggered injury, versus vehicle, FIG. 1J", "result": "significantly increased"},
      {"measurement": "TA/GS activation pattern during stepping gait", "setting": "[2]; compared with alternating TA/GS activation in intact mice, FIG. 1K", "result": "co-activation of TA and GS during the swing phase"},
      {"measurement": "oscillation of hindlimb joints", "setting": "[2]; staggered-lesioned mice during stepping, FIGS. 1H-1K", "result": "significantly increased oscillation of hindlimb joints"},
      {"measurement": "bodyweight support during stepping", "setting": "[2]; staggered-lesioned mice, 8-9 weeks after injury", "result": "could partially support their body weight"},
      {"measurement": "EMG activity of tibialis anterior (TA) and gastrocnemius soleus (GS) muscles", "setting": "[2]; staggered-lesioned mice, FIG. 1K, 2H", "result": "showed both TA and GS activity"},
      {"measurement": "functional recovery (BMS), chronic treatment", "setting": "[3]", "result": "failed to promote any significant functional recovery"},
      {"measurement": "mice that recovered consistent hindpaw plantar placement and weight-bearing stepping", "setting": "[4]; 9 weeks post staggered injury, FIG. 1F", "result": 80, "unit": "%"},
      {"measurement": "additional functional recovery (BMS) from accompanying CLP290 treatment", "setting": "[4]; Vgat-Cre mice with AAV-FLEX-KCC2, CLP290 versus vehicle, FIG. 10E", "result": "did not significantly enhance functional recovery at most time points"},
      {"measurement": "time BMS scores remained significantly higher than controls after stopping treatment", "setting": "[4]; after withdrawal following 10-week treatment, FIG. 1G", "result": "1-2 weeks"},
      {"measurement": "stepping ability / functional recovery (BMS), chronic compound treatment", "setting": "[4]; daily i.p. treatment from 1 week after injury, BMS about 24 h after previous dose, FIG. 1E, 7A", "result": "induced sustained functional recovery"},
      {"measurement": "time at which functional recovery (BMS) first appeared", "setting": "[4]; daily i.p. treatment started 1 week after injury, BMS about 24 h after previous dose, FIG. 1E", "result": "4-5 weeks"},
      {"measurement": "time from which functional recovery (BMS) became significant", "setting": "[4]; weeks after treatment, daily i.p. treatment, BMS about 24 h after previous dose, FIG. 1E", "result": 7, "unit": "weeks"}
    ]}
  ]
}
